Assay results: US10800792B2, “Inhibitors of Bruton's tyrosine kinase and method of their use” (JANSSEN PHARMACEUTICA NV, priority 2015, dated 2020)

Target: unphosphorylated-BTK kinase domain (UP-BTK), GST-tagged human BTK (389-659aa) (Homo sapiens (Human), UniProt Q06187)
Assay: BTK kinase Lanthascreen binding assay
Settings: Lanthascreen tracer competition, 60 minutes incubation, pIC50 = negative log of the IC50 in molar; for IC50: read-out: BTK_I_binding pIC50 (converted)
How it was run: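 A fluorescent tracer is bound to unphosphorylated BTK; test compound is added to compete it off; the Lanthascreen signal is read and IC50 is fitted, then reported as its negative log in molar.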

Chain of unphosphorylated-BTK kinase domain (UP-BTK), GST-tagged human BTK (389-659aa) (Q06187 389-659): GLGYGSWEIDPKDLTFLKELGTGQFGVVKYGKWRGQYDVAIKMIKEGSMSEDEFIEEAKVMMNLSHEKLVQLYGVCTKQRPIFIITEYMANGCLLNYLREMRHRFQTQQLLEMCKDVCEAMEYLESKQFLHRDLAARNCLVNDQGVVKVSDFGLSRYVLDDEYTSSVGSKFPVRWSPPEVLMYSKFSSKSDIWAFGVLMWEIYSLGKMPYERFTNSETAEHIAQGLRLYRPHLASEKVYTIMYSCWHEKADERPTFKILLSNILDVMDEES

Row | SMILES | BTK_I_binding pIC50 | IC50 [nM]
1 | Cc1nc(Oc2ccccc2)ccc1N1C(=O)Nc2c(C(=O)N[C@@H]3CCNC3)sc3nccc1c23 (single isomer, unassigned) [Example 717, (R)-5-(*S)-(2-Methyl-6-phenoxypyridin-3-yl)-4-oxo-N-(pyrrolidin-3-yl)-4,5-dihydro-3H-1-thia-3,5,8-triazaacenaphthylene-2-carboxamide] | 6.4 | –
2 | C=CC(=O)N1CCC[C@@H](NC(=O)c2sc3nccc4c3c2NC(=O)N4c2ccc(OC3CCC3)nc2C)C1 (single isomer, unassigned) [Example 736, (R)—N-(1-Acryloylpiperidin-3-yl)-5-(*R)-(6-cyclobutoxy-2-methylpyridin-3-yl)-4-oxo-4,5-dihydro-3H-1-thia-3,5,8-triazaacenaphthylene-2-carboxamide] | <6 | –
3 | C=CC(=O)N1CCC[C@@H](NC(=O)c2sc3nccc4c3c2NC(=O)N4c2cnc(Oc3ccccc3)nc2C)C1 (single isomer, unassigned) [Example 746, (R)—N-(1-Acryloylpiperidin-3-yl)-5-(*S)-(4-methyl-2-phenoxypyrimidin-5-yl)-4-oxo-4,5-dihydro-3H-1-thia-3,5,8-triazaacenaphthylene-2-carboxamide] | 8.1 | –
4 | C=CC(=O)N[C@@H]1COC[C@@H]1NC(=O)c1sc2nccc3c2c1NC(=O)N3c1cnc(Oc2ccccc2)cc1C (single isomer, unassigned) [Example 752, N-((*3R,*4S)-4-Acrylamidotetrahydrofuran-3-yl)-5-(*S)-(4-methyl-6-phenoxypyridin-3-yl)-4-oxo-4,5-dihydro-3H-1-thia-3,5,8-triazaacenaphthylene-2-carboxamide] | – | 398
5 | C=CC(=O)N1CCC[C@@H](NC(=O)c2sc3nccc4c3c2NC(=O)N4c2ccc(OC(C)C)nc2C)C1 (single isomer, unassigned) [Example 753, (R)—N-(1-Acryloylpiperidin-3-yl)-5-(*S)-(6-isopropoxy-2-methylpyridin-3-yl)-4-oxo-4,5-dihydro-3H-1-thia-3,5,8-triazaacenaphthylene-2-carboxamide] | 6.2 | –
6 | Cc1cc(OCC(C)C)ncc1N1C(=O)Nc2c(C(=O)N[C@@H]3CCCNC3)sc3nccc1c23 (single isomer, unassigned) [Example 759, (R)-5-(*S)-(6-Isobutoxy-4-methylpyridin-3-yl)-4-oxo-N-(piperidin-3-yl)-4,5-dihydro-3H-1-thia-3,5,8-triazaacenaphthylene-2-carboxamide] | 6.7 | –
7 | Cc1cc(OCC(C)C)ncc1N1C(=O)Nc2c(C(=O)N[C@@H]3CCCNC3)sc3nccc1c23 (single isomer, unassigned) [Example 760, (R)-5-(*R)-(6-Isobutoxy-4-methylpyridin-3-yl)-4-oxo-N-(piperidin-3-yl)-4,5-dihydro-3H-1-thia-3,5,8-triazaacenaphthylene-2-carboxamide] | <6 | –
8 | Cc1cc(OC2CCCC2)ncc1N1C(=O)Nc2c(C(=O)N[C@@H]3CCCNC3)sc3nccc1c23 (single isomer, unassigned) [Example 762, (R)-5-(*R)-(6-(Cyclopentyloxy)-4-methylpyridin-3-yl)-4-oxo-N-(piperidin-3-yl)-4,5-dihydro-3H-1-thia-3,5,8-triazaacenaphthylene-2-carboxamide] | <6 | –
9 | Cc1cc(OC(C)C)ncc1N1C(=O)Nc2c(C(=O)N[C@@H]3CCCNC3)sc3nccc1c23 (single isomer, unassigned) [Example 794, (R)-5-(*S)-(6-Isopropoxy-4-methylpyridin-3-yl)-4-oxo-N-(piperidin-3-yl)-4,5-dihydro-3H-1-thia-3,5,8-triazaacenaphthylene-2-carboxamide] | 6.5 | –
10 | Cc1cc(OCC(C)C)ncc1N1C(=O)Nc2c(C(=O)N[C@@H]3CCNC3)sc3nccc1c23 (single isomer, unassigned) [Example 798, (R)-5-(*S)-(6-Isobutoxy-4-methylpyridin-3-yl)-4-oxo-N-(pyrrolidin-3-yl)-4,5-dihydro-3H-1-thia-3,5,8-triazaacenaphthylene-2-carboxamide] | 6.3 | –

Other lines, results leading:

Row | BTK_I_binding pIC50 | IC50 [nM] | SMILES
11 | 6.1 | – | C=CC(=O)N1CC[C@@H](NC(=O)c2sc3nccc4c3c2NC(=O)N4c2cnc(Oc3ccccc3)nc2C)C1 (single isomer, unassigned) [Example 724, (R)—N-(1-Acryloylpyrrolidin-3-yl)-5-(*R)-(4-methyl-2-phenoxypyrimidin-5-yl)-4-oxo-4,5-dihydro-3H-1-thia-3,5,8-triazaacenaphthylene-2-carboxamide]
12 | <6 | – | Cc1nc(Oc2ccccc2)ccc1N1C(=O)Nc2c(C(=O)N[C@@H]3CCNC3)sc3nccc1c23 (single isomer, unassigned) [Example 728, (R)-5-(*R)-(2-Methyl-6-phenoxypyridin-3-yl)-4-oxo-N-(pyrrolidin-3-yl)-4,5-dihydro-3H-1-thia-3,5,8-triazaacenaphthylene-2-carboxamide]
13 | – | 7.94 | C=CC(=O)N[C@H]1COC[C@H]1NC(=O)c1sc2nccc3c2c1NC(=O)N3c1cnc(Oc2ccccc2)cc1C (single isomer, unassigned) [Example 745, N-((3*S,4*R)-4-Acrylamidotetrahydrofuran-3-yl)-5-(*S)-(4-methyl-6-phenoxypyridin-3-yl)-4-oxo-4,5-dihydro-3H-1-thia-3,5,8-triazaacenaphthylene-2-carboxamide]
14 | <6 | – | C=CC(=O)N1CCC[C@@H](NC(=O)c2sc3nccc4c3c2NC(=O)N4c2ccc(OC(C)C)nc2C)C1 (single isomer, unassigned) [Example 757, (R)—N-(1-Acryloylpiperidin-3-yl)-5-(*R)-(6-isopropoxy-2-methylpyridin-3-yl)-4-oxo-4,5-dihydro-3H-1-thia-3,5,8-triazaacenaphthylene-2-carboxamide]
15 | 7.1 | – | Cc1cc(OC2CCCC2)ncc1N1C(=O)Nc2c(C(=O)N[C@@H]3CCCNC3)sc3nccc1c23 (single isomer, unassigned) [Example 761, (R)-5-(*S)-(6-(Cyclopentyloxy)-4-methylpyridin-3-yl)-4-oxo-N-(piperidin-3-yl)-4,5-dihydro-3H-1-thia-3,5,8-triazaacenaphthylene-2-carboxamide]
16 | 8.2 | – | C=CC(=O)N1CCC[C@@H](NC(=O)c2sc3nccc4c3c2NC(=O)N4c2cnc(OC3CCCC3)cc2C)C1 (single isomer, unassigned) [Example 768, (R)—N-(1-Acryloylpiperidin-3-yl)-5-(*S)-(6-(cyclopentyloxy)-4-methylpyridin-3-yl)-4-oxo-4,5-dihydro-3H-1-thia-3,5,8-triazaacenaphthylene-2-carboxamide]
17 | 6.2 | – | C=CC(=O)N1CCC[C@@H](NC(=O)c2sc3nccc4c3c2NC(=O)N4c2cnc(OC3CCCC3)cc2C)C1 (single isomer, unassigned) [Example 769, (R)—N-(1-Acryloylpiperidin-3-yl)-5-(*R)-(6-(cyclopentyloxy)-4-methylpyridin-3-yl)-4-oxo-4,5-dihydro-3H-1-thia-3,5,8-triazaacenaphthylene-2-carboxamide]
18 | 7.7 | – | Cc1cc(Oc2ccccc2)ccc1N1C(=O)Nc2c(C(=O)N[C@@H]3CCCN(C(=O)C(C#N)=CC4(C)COC4)C3)sc3nccc1c23 (single isomer, unassigned) [Example 782, (R,EZ)—N-(1-(2-Cyano-3-(3-methyloxetan-3-yl)acryloyl)piperidin-3-yl)-5-(*S)-(2-methyl-4-phenoxyphenyl)-4-oxo-4,5-dihydro-3H-1-thia-3,5,8-triazaacenaphthylene-2-carboxamide]
19 | 8.1 | – | C=CC(=O)N1CCC[C@@H](NC(=O)c2sc3nccc4c3c2NC(=O)N4c2cnc(OC(C)C)cc2C)C1 (single isomer, unassigned) [Example 789, (R)—N-(1-Acryloylpiperidin-3-yl)-5-(*S)-(6-isopropoxy-4-methylpyridin-3-yl)-4-oxo-4,5-dihydro-3H-1-thia-3,5,8-triazaacenaphthylene-2-carboxamide]
20 | 6.8 | – | Cc1nc(Oc2ccccc2)ccc1N1C(=O)Nc2c(C(=O)N[C@@H]3CCOC3)sc3nccc1c23 (single isomer, unassigned) [Example 793, (R)-5-(*S)-(2-Methy-6-phenoxypyridin-3-yl)-4-oxo-N-(tetrahydrofuran-3-yl)-4,5-dihydro-3H-1-thia-3,5,8-triazaacenaphthylene-2-carboxamide]
21 | 6.3 | – | Cc1cc(OC2CCCC2)ncc1N1C(=O)Nc2c(C(=O)N[C@@H]3CCNC3)sc3nccc1c23 (single isomer, unassigned) [Example 797, (R)-5-(*S)-(6-(Cyclopentyloxy)-4-methylpyridin-3-yl)-4-oxo-N-(pyrrolidin-3-yl)-4,5-dihydro-3H-1-thia-3,5,8-triazaacenaphthylene-2-carboxamide]
22 | 6.1 | – | C=CC(=O)N1CCC[C@@H](NC(=O)c2sc3nccc4c3c2NC(=O)N4c2cnc(OC(C)C)cc2C)C1 (single isomer, unassigned) [Example 804, (R)—N-(1-Acryloylpiperidin-3-yl)-5-(*R)-(6-isopropoxy-4-methylpyridin-3-yl)-4-oxo-4,5-dihydro-3H-1-thia-3,5,8-triazaacenaphthylene-2-carboxamide]
23 | <6 | – | Cc1cc(OC(C)C)ncc1N1C(=O)Nc2c(C(=O)N[C@@H]3CCCNC3)sc3nccc1c23 (single isomer, unassigned) [Example 806, (R)-5-(*R)-(6-Isopropoxy-4-methylpyridin-3-yl)-4-oxo-N-(piperidin-3-yl)-4,5-dihydro-3H-1-thia-3,5,8-triazaacenaphthylene-2-carboxamide]
24 | – | > 1000 | C=CC(=O)N1CCC[C@@H](NC(=O)c2sc3nccc4c3c2NC(=O)N4c2ccc(OC3CCOCC3)cc2C)C1 (single isomer, unassigned) [Example 813, (R)—N-(1-Acryloylpiperidin-3-yl)-5-(*S)-(2-methyl-4-((tetrahydro-2H-pyran-4-yl)oxy)phenyl)-4-oxo-4,5-dihydro-3H-1-thia-3,5,8-triazaacenaphthylene-2-carboxamide]
